# Experimental data taken from ChEMBL document CHEMBL1201862, “PubChem BioAssay data set” (2004).
# Active and inactive are the calls of the source.
# How the values were obtained:
# [1] = inhibitors of PGC1a acetylation in cells, dose response, cell-based, cherry-picked samples (AID 720514); type: functional;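 also: potency may reflect raised or lowered acetylation signal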
# [2] = target: T1, Sentrin-specific protease 8 (Homo sapiens, UniProt Q96LD8); type: functional;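 also: luminescence read-out of SENP8 inhibition, dose-response confirmation following an ultra-high-throughput screen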
# T1 sequence (Q96LD8 whole entry): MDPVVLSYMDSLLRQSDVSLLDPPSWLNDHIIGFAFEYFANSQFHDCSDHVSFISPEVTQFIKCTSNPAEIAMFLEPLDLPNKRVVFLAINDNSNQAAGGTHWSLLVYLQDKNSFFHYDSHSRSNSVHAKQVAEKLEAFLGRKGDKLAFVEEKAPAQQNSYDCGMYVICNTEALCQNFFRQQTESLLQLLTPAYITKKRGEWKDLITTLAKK
# [3] = target: T2, Sentrin-specific protease 7 (Homo sapiens, UniProt Q9BQF6); type: functional;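 also: Luminescence-based dose-response confirmation of ultra-high-throughput screening hits, measuring inhibition of SENP7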
# T2 sequence (Q9BQF6 whole entry): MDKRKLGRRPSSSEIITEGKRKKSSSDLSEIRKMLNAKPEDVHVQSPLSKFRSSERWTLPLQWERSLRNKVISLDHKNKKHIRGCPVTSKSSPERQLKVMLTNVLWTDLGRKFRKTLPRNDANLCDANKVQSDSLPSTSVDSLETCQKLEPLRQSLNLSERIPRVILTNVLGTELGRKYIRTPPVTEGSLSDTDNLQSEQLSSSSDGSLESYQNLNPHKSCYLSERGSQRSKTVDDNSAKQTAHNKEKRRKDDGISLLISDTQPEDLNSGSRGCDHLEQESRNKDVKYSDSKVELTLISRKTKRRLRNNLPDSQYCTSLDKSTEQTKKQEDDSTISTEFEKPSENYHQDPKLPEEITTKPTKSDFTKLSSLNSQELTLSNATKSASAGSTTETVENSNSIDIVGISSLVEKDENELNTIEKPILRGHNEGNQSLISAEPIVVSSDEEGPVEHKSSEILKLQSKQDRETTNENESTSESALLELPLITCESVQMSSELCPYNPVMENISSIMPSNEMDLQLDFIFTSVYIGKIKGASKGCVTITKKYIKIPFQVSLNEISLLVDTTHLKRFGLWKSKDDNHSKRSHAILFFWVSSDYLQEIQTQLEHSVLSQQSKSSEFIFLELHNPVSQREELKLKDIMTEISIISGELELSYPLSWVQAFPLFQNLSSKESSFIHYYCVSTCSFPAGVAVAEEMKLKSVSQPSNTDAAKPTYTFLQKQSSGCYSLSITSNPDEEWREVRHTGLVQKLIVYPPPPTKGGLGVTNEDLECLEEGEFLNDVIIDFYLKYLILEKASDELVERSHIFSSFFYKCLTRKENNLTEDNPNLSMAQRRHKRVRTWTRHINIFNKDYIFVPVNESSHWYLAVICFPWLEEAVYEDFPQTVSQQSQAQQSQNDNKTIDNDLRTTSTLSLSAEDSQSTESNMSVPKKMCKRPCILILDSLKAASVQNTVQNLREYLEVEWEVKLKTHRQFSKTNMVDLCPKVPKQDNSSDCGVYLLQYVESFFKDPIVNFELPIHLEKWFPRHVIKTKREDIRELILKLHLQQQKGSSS
# Caspase-3 = target: T3, Caspase-3 (Homo sapiens, UniProt P42574); type: functional;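 also: Dose-response selectivity test against caspase-3 for candidate inhibitors of sentrin-specific proteases (SENPs)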
# T3 sequence (P42574 whole entry): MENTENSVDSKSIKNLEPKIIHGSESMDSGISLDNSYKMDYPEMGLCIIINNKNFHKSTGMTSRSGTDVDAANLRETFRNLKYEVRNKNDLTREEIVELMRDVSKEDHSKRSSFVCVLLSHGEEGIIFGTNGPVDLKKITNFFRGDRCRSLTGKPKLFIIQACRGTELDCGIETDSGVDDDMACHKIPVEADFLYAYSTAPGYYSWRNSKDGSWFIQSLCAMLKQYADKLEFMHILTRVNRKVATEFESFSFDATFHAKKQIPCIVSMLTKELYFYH
# [4] = target: T4, Sentrin-specific protease 6 (Homo sapiens, UniProt Q9GZR1); type: functional;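 also: Luminescence-based dose-response confirmatory assay of SENP6 inhibition, following up an ultra-high-throughput screen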
# T4 sequence (Q9GZR1 whole entry): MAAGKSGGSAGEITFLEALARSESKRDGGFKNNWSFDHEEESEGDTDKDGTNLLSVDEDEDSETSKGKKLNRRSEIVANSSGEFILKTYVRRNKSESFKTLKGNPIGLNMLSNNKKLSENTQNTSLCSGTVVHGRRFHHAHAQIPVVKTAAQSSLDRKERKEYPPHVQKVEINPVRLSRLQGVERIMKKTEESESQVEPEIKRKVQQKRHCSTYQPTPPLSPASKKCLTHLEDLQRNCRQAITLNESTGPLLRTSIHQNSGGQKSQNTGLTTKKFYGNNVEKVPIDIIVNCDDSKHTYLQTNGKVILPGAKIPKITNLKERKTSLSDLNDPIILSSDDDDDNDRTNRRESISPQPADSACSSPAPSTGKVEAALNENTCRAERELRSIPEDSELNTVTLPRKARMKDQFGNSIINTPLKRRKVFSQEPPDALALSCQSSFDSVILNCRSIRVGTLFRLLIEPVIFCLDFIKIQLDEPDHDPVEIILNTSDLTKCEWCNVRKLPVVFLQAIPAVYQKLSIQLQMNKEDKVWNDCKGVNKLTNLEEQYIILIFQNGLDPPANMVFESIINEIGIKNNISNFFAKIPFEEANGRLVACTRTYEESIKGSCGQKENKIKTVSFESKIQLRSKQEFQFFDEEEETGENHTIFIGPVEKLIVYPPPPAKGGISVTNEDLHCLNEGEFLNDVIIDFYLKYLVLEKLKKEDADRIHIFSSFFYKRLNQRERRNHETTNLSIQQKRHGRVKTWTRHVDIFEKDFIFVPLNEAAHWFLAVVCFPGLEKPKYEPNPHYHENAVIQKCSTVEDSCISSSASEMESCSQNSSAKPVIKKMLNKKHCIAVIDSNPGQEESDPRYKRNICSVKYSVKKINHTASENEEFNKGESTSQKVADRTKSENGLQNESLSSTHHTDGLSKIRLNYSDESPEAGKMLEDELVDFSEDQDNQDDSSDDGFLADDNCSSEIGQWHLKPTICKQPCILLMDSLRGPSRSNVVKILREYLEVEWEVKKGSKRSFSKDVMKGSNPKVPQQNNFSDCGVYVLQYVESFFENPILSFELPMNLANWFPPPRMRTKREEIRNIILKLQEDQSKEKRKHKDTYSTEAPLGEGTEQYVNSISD
# Fatty acid synthase [5] = target: T5, Fatty acid synthase (Homo sapiens, UniProt P49327); assay: FAS thioesterase domain inhibitors, dose response, biochemical, kinetic fluorescence intensity (AID 624326); type: functional;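 also: rate of fluorescence rise from hydrolysis of a fluorogenic O-methyl fluorescein ester substrate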
# T5 sequence (P49327 whole entry, the tested form may be a part): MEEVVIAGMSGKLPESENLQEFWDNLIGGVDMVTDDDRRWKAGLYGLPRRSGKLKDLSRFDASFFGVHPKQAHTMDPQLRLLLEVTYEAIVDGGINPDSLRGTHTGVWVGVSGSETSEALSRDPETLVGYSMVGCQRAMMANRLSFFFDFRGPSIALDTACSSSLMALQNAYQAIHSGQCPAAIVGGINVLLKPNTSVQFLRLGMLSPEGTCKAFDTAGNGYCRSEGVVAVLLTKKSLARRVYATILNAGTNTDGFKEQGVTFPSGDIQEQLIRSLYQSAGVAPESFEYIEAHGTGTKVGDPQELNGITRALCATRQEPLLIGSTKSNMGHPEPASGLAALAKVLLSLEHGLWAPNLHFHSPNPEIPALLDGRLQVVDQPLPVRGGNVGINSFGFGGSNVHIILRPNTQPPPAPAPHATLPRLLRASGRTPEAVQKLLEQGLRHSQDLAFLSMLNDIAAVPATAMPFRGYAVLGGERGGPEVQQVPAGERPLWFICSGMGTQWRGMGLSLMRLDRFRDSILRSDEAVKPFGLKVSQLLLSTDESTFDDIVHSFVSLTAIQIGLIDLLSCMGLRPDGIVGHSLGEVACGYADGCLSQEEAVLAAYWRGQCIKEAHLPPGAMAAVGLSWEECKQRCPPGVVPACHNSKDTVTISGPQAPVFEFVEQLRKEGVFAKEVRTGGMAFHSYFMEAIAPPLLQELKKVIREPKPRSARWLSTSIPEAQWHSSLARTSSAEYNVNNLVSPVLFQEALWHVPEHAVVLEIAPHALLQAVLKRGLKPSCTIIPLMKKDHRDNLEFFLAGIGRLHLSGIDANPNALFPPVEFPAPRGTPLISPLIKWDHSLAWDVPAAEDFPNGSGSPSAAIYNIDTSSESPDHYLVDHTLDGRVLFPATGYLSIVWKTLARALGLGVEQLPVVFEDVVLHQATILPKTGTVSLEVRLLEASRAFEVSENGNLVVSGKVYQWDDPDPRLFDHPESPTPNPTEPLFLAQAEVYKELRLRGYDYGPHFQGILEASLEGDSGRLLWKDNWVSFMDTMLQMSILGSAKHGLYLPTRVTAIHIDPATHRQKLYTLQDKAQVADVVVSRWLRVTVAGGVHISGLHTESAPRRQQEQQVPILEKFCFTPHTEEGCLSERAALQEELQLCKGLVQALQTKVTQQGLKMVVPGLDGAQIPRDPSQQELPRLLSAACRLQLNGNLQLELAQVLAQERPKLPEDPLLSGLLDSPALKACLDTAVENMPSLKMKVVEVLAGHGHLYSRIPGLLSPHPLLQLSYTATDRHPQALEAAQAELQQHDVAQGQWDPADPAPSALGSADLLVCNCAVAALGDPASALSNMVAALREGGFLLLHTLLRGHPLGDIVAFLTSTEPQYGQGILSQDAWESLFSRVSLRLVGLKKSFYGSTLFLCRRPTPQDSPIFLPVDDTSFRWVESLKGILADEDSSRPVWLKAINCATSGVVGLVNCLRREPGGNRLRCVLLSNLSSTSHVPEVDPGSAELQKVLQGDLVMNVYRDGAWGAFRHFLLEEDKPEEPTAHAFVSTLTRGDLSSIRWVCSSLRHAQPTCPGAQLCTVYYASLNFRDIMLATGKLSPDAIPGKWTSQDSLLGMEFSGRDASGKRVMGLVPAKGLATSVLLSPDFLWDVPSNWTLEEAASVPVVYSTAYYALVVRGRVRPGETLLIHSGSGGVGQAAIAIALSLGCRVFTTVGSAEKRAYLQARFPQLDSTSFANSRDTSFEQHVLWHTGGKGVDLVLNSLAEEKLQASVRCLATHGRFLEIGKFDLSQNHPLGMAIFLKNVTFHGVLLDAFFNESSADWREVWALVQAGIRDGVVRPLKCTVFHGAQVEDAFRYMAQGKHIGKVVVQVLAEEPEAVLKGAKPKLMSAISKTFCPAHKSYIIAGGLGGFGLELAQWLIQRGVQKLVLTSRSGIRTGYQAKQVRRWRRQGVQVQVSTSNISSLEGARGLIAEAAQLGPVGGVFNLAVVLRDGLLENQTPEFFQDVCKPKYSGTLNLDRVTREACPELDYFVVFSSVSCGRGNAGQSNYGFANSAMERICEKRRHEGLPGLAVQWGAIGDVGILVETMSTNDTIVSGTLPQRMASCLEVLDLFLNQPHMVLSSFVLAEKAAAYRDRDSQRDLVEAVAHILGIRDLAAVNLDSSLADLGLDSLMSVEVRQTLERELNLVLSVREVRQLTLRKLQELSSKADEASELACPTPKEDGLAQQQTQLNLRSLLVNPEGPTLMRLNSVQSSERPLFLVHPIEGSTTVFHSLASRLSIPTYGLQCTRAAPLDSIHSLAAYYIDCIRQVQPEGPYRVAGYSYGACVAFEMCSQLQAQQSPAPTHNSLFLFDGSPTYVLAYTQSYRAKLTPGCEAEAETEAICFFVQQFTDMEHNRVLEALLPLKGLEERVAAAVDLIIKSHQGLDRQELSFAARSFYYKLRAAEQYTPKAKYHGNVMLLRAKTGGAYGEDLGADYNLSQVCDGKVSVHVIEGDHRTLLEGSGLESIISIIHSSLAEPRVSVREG
# Fatty acid synthase [6] = target: T5, Fatty acid synthase; assay: FAS thioesterase domain inhibitors, dose response, biochemical, endpoint fluorescence intensity, uHTS hits (AID 624327); type: functional;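 also: fluorescence from hydrolysis of an O-methyl fluorescein acyl ester substrate by the enzyme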
# fMet-Leu-Phe receptor = target: T6, fMet-Leu-Phe receptor (Homo sapiens, UniProt P21462); assay: FPR ligands, dose response (AID 519); type: functional
# T6 sequence (P21462 whole entry): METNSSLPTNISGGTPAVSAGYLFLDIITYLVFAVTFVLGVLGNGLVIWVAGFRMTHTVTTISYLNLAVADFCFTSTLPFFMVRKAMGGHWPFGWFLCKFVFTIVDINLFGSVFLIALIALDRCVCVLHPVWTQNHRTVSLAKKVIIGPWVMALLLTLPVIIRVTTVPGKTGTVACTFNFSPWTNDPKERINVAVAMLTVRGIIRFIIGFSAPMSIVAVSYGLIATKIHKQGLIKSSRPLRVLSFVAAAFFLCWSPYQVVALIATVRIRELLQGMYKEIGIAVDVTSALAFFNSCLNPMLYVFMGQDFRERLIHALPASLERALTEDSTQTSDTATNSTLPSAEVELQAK
# BJ [7] = assay: cytotoxicity toward BJ-TERT fibroblasts, dose response, cell-based, RAS-independent, luminescence (AID 1933); type: functional; details: Homo sapiens
# BJ [8] = assay: cells; type: functional, cell-based; details: Homo sapiens
# BJ [9] = assay: cytotoxicity toward BJ-TERT-LT-ST fibroblasts, dose response, cell-based, RAS-independent, luminescence (AID 1935); type: functional; details: Homo sapiens;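 also: BJ fibroblasts immortalized with TERT plus LT and ST oncogenes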
# [10] = cytotoxicity toward DRD oncogenic fibroblasts, dose response, cell-based, non-viral oncogenic, luminescence (AID 1934); type: functional; details: Homo sapiens
# BJ [11] = assay: cytotoxicity toward Ras-transformed BJeLR fibroblasts, dose response, cell-based, alamar blue fluorescence, cherrypicked samples (AID 2631); type: functional; details: Homo sapiens;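 also: confirmatory dose-response assay in RAS-dependent BJ fibroblasts engineered with TERT, LT and ST, with cytotoxicity read by fluorescence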
# [12] = HEK293 cell cytotoxicity, dose response, cytotoxicity control, plate reader, cherry-picked samples (AID 743446); type: functional, cell-based
# [13] = target: T7, Microphthalmia-associated transcription factor (Homo sapiens, UniProt O75030); assay: TRPM1 promoter luciferase signal decrease, dose response, MITF inhibitor project, cell-based, SK-MEL-5, cherry-picked, set 3 (AID 493073); type: functional
# T7 sequence (O75030 whole entry): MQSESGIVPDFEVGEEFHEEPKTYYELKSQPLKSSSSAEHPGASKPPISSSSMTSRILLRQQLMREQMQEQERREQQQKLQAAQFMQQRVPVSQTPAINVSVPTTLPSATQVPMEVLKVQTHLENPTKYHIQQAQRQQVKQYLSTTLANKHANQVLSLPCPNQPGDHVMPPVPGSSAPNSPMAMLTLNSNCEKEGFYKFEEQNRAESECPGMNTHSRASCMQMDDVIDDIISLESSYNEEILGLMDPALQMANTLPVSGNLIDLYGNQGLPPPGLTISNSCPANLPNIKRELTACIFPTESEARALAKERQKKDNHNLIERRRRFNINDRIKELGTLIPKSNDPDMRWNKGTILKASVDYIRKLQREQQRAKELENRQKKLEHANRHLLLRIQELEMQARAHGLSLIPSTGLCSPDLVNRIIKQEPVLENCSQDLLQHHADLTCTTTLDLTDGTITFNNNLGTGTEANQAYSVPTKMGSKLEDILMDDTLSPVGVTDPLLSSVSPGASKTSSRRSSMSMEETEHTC
# [14] = HepG2 cell cytotoxicity, dose response, cytotoxicity control, plate reader, cherry-pick, antagonist series (AID 743416); type: functional, cell-based
# [15] = LGR2 antagonists, dose response, cell-based, HEK293, CRE-luciferase reporter, cherry pick, set 2 (AID 743343); type: functional;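 also: transfected cells were stimulated with diluted bursicon conditioned medium after compound addition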
# [16] = MC4R antagonists, dose response, counter-screen for LGR2 antagonist project, cell-based, plate reader, cherry pick (AID 743444); type: functional;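 also: transfected HEK 293 cells stimulated with alpha-MSH peptide; potency of inhibitors of the alpha-MSH evoked signal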
# [17] = A549 cell cytotoxicity, dose response, cytotoxicity control, plate reader, cherry-pick, antagonist series (AID 743412); type: functional, cell-based
structure (smiles),measurement,setting,value
COc1ccc(-c2cnc3c(c2)C(=O)N([C@H](C)CO)C[C@H](C)[C@@H](CN(C)C(=O)C2CCC2)O3)cc1,AC50,[1],25.8 µM (active)
c1ccc(Nc2nnc(-c3cccc4ccccc34)o2)cc1,IC50,[2],> 100 µM (inactive)
same,IC50,[3],> 100 µM (inactive)
same,IC50,Caspase-3,> 100 µM (inactive)
same,IC50,[4],> 100 µM (inactive)
O=C(Nc1cccc(F)c1)c1ccc(-c2ccccc2Cl)o1,IC50,[2],53.7 µM (active)
same,IC50,[3],7.07 µM (active)
same,IC50,Caspase-3,47 µM (active)
same,IC50,[4],42 µM (active)
CC1=C(C(=O)OCC(Br)(Br)Br)C(c2cccc([N+](=O)[O-])c2)NC(=O)N1CCCC(=O)O (centres undefined),IC50,Fatty acid synthase [5],5.05 µM (active)
same,IC50,Fatty acid synthase [6],7.69 µM (active)
Fc1ccc(-c2nnc3ccc(N4CCCC4)nn23)cc1,Ki,fMet-Leu-Phe receptor,> 66.7 µM (inactive)
O=C(/C=C/c1ccc(F)cc1)NNC(=O)CCN1CCN(Cc2ccccc2)CC1,EC50,BJ [7],19.1 µM (active)
same,EC50,BJ [8],3.53 µM (active)
same,EC50,BJ [9],2.15 µM (active)
same,EC50,[10],2.92 µM (active)
same,EC50,BJ [11],> 133 µM (inactive)
COc1ccccc1-n1c(CNC(=O)c2ccco2)nnc1SCC(=O)Nc1ccc(F)cc1,Ki,fMet-Leu-Phe receptor,63.3 µM (inactive)
Cn1nnnc1Sc1ncnc2scc(-c3ccc(C#N)cc3)c12,AC50,[1],8.12 µM (active)
same,AC50,[12],10.9 µM (active)
same,AC50,[13],4.98 µM (active)
same,AC50,[14],7.68 µM (active)
same,AC50,[15],5.18 µM (active)
same,AC50,[16],3.6 µM (active)
same,AC50,[17],7.28 µM (active)
Brc1nc(-c2ccccc2)nc(-c2ccccc2)c1Br,EC50,BJ [7],8.57 µM (inconclusive)
same,EC50,BJ [8],14 µM (active)
same,EC50,BJ [9],7.93 µM (inconclusive)
same,EC50,[10],10.2 µM (active)
same,EC50,BJ [11],4.95 µM (active)
COc1ccc(-c2nnc(SCc3ccccc3F)o2)cc1,IC50,[2],12.2 µM (active)
same,IC50,[3],4.23 µM (active)
same,IC50,Caspase-3,16.1 µM (active)
same,IC50,[4],12 µM (active)
COc1ccc([N+](=O)[O-])cc1NC(=O)CCC(=O)c1cccs1,IC50,Fatty acid synthase [5],9.62 µM (active)
same,IC50,Fatty acid synthase [6],9.16 µM (active)
O=[N+]([O-])c1ccc(S(=O)(=O)NN=Cc2ccc3c(c2)OCO3)cc1,IC50,Fatty acid synthase [5],5.8 µM (active)
same,IC50,Fatty acid synthase [6],5.4 µM (active)
CCCCn1c(NC(C)=O)c(C#N)c2nc3ccccc3nc21,Ki,fMet-Leu-Phe receptor,45.7 µM (inactive)
CCOC(=O)CC(NC(=O)c1cc2ccccc2oc1=O)c1cccc([N+](=O)[O-])c1 (centres undefined),IC50,Fatty acid synthase [5],15.5 µM (active)
same,IC50,Fatty acid synthase [6],16.7 µM (active)
COC(=O)c1ccc(CSc2nc(C(F)F)cc(C)c2C#N)o1,IC50,Fatty acid synthase [5],18.6 µM (active)
same,IC50,Fatty acid synthase [6],17.2 µM (active)
Cc1cc2oc(C(=O)NC3CCS(=O)(=O)C3)c(C)c2cc1C (centres undefined),Ki,fMet-Leu-Phe receptor,> 66.7 µM (inactive)
